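Test compounds were applied to cells in 96-well plates for 48 hours at 5 doses. GI50 marks 50% less growth.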 Active and inactive are the calls of the source. No stated cut-off is given here; in the data, active = GI50 up to about 1.1 µM and inactive = higher. Some results are limits rather than exact numbers.

The values that follow come from ChEMBL document CHEMBL1201862, “PubChem BioAssay data set” (2004).

Among the test systems are SNB-19; EKVX; SF-268; OVCAR-5; MOLT-4; CCRF-CEM; 786-0; U-251; UO-31; KM12; HCT-15; COLO 205; UACC-62; HCC 2998; CAKI-1.
What all share (assay): DTP human tumour cell line panel, 48 h

For the compound `O=C1NC2(C=Cc3c(ccc4ccccc34)O2)Oc2ccccc21` (configuration not stated), the GI50 in the assay on SNB-19 was 20.7 µM (inactive); with EKVX, 21.1 µM (inactive); in the assay on SF-268, 17.2 µM (inactive); with OVCAR-5, 36.6 µM (inactive); in the assay on MOLT-4, 7.8 µM (inactive); in the assay with CCRF-CEM, 3.95 µM (inactive). The GI50 in the assay on 786-0 is 19 µM (inactive); in the assay on U-251 it was 15 µM (inactive); in the assay with UO-31, 1.76 µM (inactive); in the assay on KM12 it was 5.18 µM (inactive); with HCT-15, 7.46 µM; with COLO 205, 14.8 µM (inactive). Besides, in the assay with UACC-62, the GI50 is 19.2 µM (inactive).
Consider `CC1CC2C(=O)N(c3ccccc3)C(=O)C2c2[nH]c3ccccc3c21` (configuration not stated), for which the GI50 is > 100 µM (inactive) in the assay with EKVX; > 100 µM (inactive) in the assay with SF-268; 28.4 µM (inactive) in the assay on MOLT-4; > 100 µM (inactive) with HCC 2998; 35.6 µM (inactive) in the assay on CCRF-CEM; 50.2 µM (inactive) in the assay with 786-0. For the same compound, the GI50 is 38.8 µM (inactive) with U-251; 58.5 µM (inactive) in the assay on KM12; above 100 µM in the assay with HCT-15; 73.3 µM (inactive) in the assay on COLO 205; > 100 µM (inactive) in the assay with UACC-62.
As to `O=C(NCCCCCCCCNC(=O)c1cnc2ccccc2n1)c1cnc2ccccc2n1`, the GI50 with SNB-19, in the assay with EKVX, with SF-268, in the assay on OVCAR-5, with MOLT-4 and in the assay with CCRF-CEM was > 100 µM (inactive) in each case. The GI50 in the assay with CAKI-1 is > 100 µM (inactive); with 786-0 it was > 100 µM (inactive); in the assay on U-251 it was > 100 µM (inactive); with UO-31, > 100 µM (inactive); in the assay with KM12, > 100 µM (inactive); in the assay on HCT-15, above 100 µM. For the same compound, the GI50 with COLO 205 and in the assay on UACC-62 was > 100 µM (inactive) each time.
Consider `CN(OC(=O)CC(=O)c1ccccc1)C(=O)Cc1ccccc1`, for which the GI50 with SNB-19, in the assay with EKVX, in the assay on SF-268, in the assay on OVCAR-5, in the assay on CCRF-CEM and in the assay with CAKI-1 was > 100 µM (inactive) in each case. Also, the GI50 with 786-0 is > 100 µM (inactive); with U-251, > 100 µM (inactive); in the assay with UO-31, > 100 µM (inactive); in the assay with KM12, > 100 µM (inactive); in the assay with HCT-15, above 100 µM; with COLO 205, > 100 µM (inactive). Besides, the GI50 in the assay with UACC-62 was > 100 µM (inactive).
For `O=P(O)(OCC(O)O)OCC(O)O`, the GI50 in the assay on SNB-19, in the assay with EKVX, in the assay with SF-268, with OVCAR-5, in the assay with MOLT-4 and with HCC 2998 was > 100 µM (inactive) throughout. For the same compound, the GI50 with CCRF-CEM, with 786-0, in the assay on U-251, in the assay with UO-31, in the assay with KM12 and with COLO 205 was > 100 µM (inactive) in each case.
Regarding `C=C(C)CCOC(c1ccccc1)(c1ccccc1)c1ccccc1`, the GI50 with SNB-19 is > 100 µM (inactive); in the assay with SF-268 it was 47 µM (inactive); in the assay with OVCAR-5, > 100 µM (inactive); with MOLT-4, 51.3 µM (inactive); in the assay with HCC 2998 it was 25.6 µM (inactive); in the assay on CCRF-CEM, 61.4 µM (inactive). Moreover, the GI50 in the assay on CAKI-1 is 70.6 µM (inactive); in the assay with 786-0, > 100 µM (inactive); with U-251 it was 50 µM (inactive); in the assay with UO-31, 27.7 µM (inactive); in the assay on KM12 it was 48.6 µM (inactive); with HCT-15, 47.3 µM. In addition, the GI50 in the assay on COLO 205 was 55.1 µM (inactive); with UACC-62 it was 40.1 µM (inactive).
Take `COC(=O)OCC1OC(N2C(=O)NC(=O)C(Br)C2N=[N+]=[N-])CC1OC(=O)OC` (configuration not stated): the GI50 in the assay with SNB-19, with SF-268, with OVCAR-5, in the assay with HCC 2998, in the assay on CCRF-CEM and with CAKI-1 was > 100 µM (inactive) each time. In addition, the GI50 in the assay on 786-0 was > 100 µM (inactive); in the assay with U-251, > 100 µM (inactive); with UO-31 it was > 100 µM (inactive); in the assay with KM12, > 100 µM (inactive); with HCT-15 it was above 100 µM; in the assay with COLO 205 it was > 100 µM (inactive). The GI50 in the assay with UACC-62 was > 100 µM (inactive).
On to `Cn1c(=O)c2c(ncn2CCCCn2ccnc2[N+](=O)[O-])n(C)c1=O`, for which the GI50 in the assay with SNB-19, in the assay with EKVX, in the assay with SF-268, in the assay with OVCAR-5, in the assay on MOLT-4 and with CCRF-CEM was > 100 µM (inactive) each time. Also, the GI50 with 786-0 is > 100 µM (inactive); in the assay with U-251 it was > 100 µM (inactive); in the assay on UO-31, > 100 µM (inactive); with KM12, > 100 µM (inactive); in the assay on HCT-15 it was above 100 µM; in the assay with COLO 205, > 100 µM (inactive). For the same compound, in the assay on UACC-62, the GI50 was > 100 µM (inactive).
Turning to `C=CC(=O)NCCSCCCOC1(C(=O)O)CC(O)C(NC(C)=O)C(C(O)C(O)CO)O1` (configuration not stated), the GI50 in the assay with SNB-19, in the assay with OVCAR-5, in the assay with MOLT-4, with HCC 2998, in the assay on 786-0 and with U-251 was > 100 µM (inactive) in each case. The GI50 in the assay with UO-31 is > 100 µM (inactive); in the assay with KM12, > 100 µM (inactive); in the assay on HCT-15, above 100 µM; with COLO 205, > 100 µM (inactive); with UACC-62, > 100 µM (inactive).
Take `CC(=O)OC[C@]1(O)CC[C@@]23CC1C[C@@H]2CCC1C(C)(C)CCC[C@@]13C` (some centres not stated): the GI50 was 14.5 µM (inactive) with SNB-19; 14.9 µM (inactive) with SF-268; 11.3 µM (inactive) with OVCAR-5; 1.77 µM (inactive) in the assay with MOLT-4; 17.4 µM (inactive) in the assay on HCC 2998; 10.1 µM (inactive) in the assay on CCRF-CEM. Moreover, the GI50 in the assay on CAKI-1 is 18.2 µM (inactive); in the assay with 786-0, 17.3 µM (inactive); with U-251 it was 14 µM (inactive); in the assay on UO-31, 16.1 µM (inactive); in the assay on KM12, 13 µM (inactive); in the assay on HCT-15, 15.8 µM. The GI50 is 17.8 µM (inactive) with COLO 205 and 13.4 µM (inactive) with UACC-62.
In the case of `COC(=O)C1[C@@H](C(=O)OC)C(=O)O[C@H]1c1cc(OC)c(OC)c(OC)c1` (some centres not stated), the GI50 in the assay with SNB-19, with SF-268, with OVCAR-5, in the assay with MOLT-4, in the assay with HCC 2998 and in the assay on CCRF-CEM was > 100 µM (inactive) throughout. Further, the GI50 is > 100 µM (inactive) in the assay with CAKI-1; > 100 µM (inactive) in the assay with 786-0; > 100 µM (inactive) in the assay with U-251; > 100 µM (inactive) with UO-31; > 100 µM (inactive) in the assay on KM12; above 100 µM with HCT-15. The GI50 in the assay on COLO 205 and with UACC-62 was > 100 µM (inactive) in each case.

One may read the GI50 as the concentration at which growth is held to half of that of the control.
